The structures appear in SMILES notation. Values after ≈ are worked out from the molar mass of the structure shown.

One assay concerns ASPC1. Nature of the assay: Cytotoxicity against human ASPC1 cells. It counts as functional, cell-based.
Assay [1] is described as follows: Cytotoxicity against human PBMC cells. It counts as functional, cell-based.
The test system of another assay is Jurkat. The experiment in a line: Cytotoxicity against human Jurkat T cells. It counts as functional, cell-based.
The test system of a further assay is DU-145. Nature of the assay: Cytotoxicity against human DU-145 cells by SRB assay. It counts as functional. Background: In SRB staining, fixed cells bind dye roughly in proportion to their protein.
A further assay deals with A549. The experiment in a line: Cytotoxicity against human A549 cells by SRB assay. It counts as functional.
The next assay has as its system HepG2. Nature of the assay: Cytotoxicity against human HepG2 cells by SRB assay. It counts as functional.
The test system of the next assay is HeLa. Nature of the assay: Cytotoxicity against human HeLa cells by SRB assay. It counts as functional.
In assay [2] the test system is MCF7. Nature of the assay: Antitumor activity in human MCF7 cells xenografted in mouse model assessed as tumor volume measured after 12 days relative to control. It counts as functional. As to conditions: time 12 day. A general note: In xenograft studies the graft and the host belong to different species.
Assay [3] deals with MCF7. The experiment in a line: Cytotoxicity against human MCF7 cells. It counts as functional, cell-based.
Assay [4] concerns Escherichia coli. Nature of the assay: microbe, parasite or virus in culture.
Assay [5] has as its system Klebsiella pneumoniae. Nature of the assay: Antimicrobial activity against Klebsiella pneumoniae. It counts as functional.
The subject of assay [6] is Staphylococcus aureus. Nature of the assay: microbe, parasite or virus in culture.
The subject of another assay is Penicillium citrinum. Nature of the assay: Antifungal activity against Penicillium citrinum NCIM 768 by plate dilution method relative to control. It counts as functional.
Assay [7] relates to Candida albicans. The experiment in a line: Antifungal activity against Candida albicans ATCC 2091 by plate dilution method relative to control. It counts as functional.
For assay [8], the system named is Klebsiella pneumoniae. Nature of the assay: Antibacterial activity against Klebsiella pneumoniae ATCC 700603 by plate dilution method. It counts as functional.
The test system of assay [9] is Aspergillus flavus. Nature of the assay: Antifungal activity against Aspergillus flavus MTCC 277 by plate dilution method relative to control. It counts as functional.
Assay [10] concerns Pseudomonas aeruginosa. The experiment in a line: Antibacterial activity against Pseudomonas aeruginosa ATCC 27853 by plate dilution method. It counts as functional.
Assay [11] concerns Bordetella bronchiseptica. The experiment in a line: Antibacterial activity against Bordetella bronchiseptica ATCC 4617 by plate dilution method. It counts as functional.
Assay [12] relates to Staphylococcus aureus. Nature of the assay: Antibacterial activity against Staphylococcus aureus ATCC 25923 by plate dilution method. It counts as functional.
The next assay has as its system Monascus purpureus. The experiment in a line: Antifungal activity against Monascus purpureus MTCC 369 by plate dilution method relative to control. It counts as functional.
The subject of assay [13] is Escherichia coli. The experiment in a line: Antibacterial activity against Escherichia coli ATCC 25922 by plate dilution method. It counts as functional.
Assay [14] relates to Bacillus subtilis. Nature of the assay: Antibacterial activity against Bacillus subtilis ATCC 6633 by plate dilution method. It counts as functional.
For the next assay, the system named is Bacillus cereus. Nature of the assay: Antibacterial activity against Bacillus cereus ATCC 9946 by plate dilution method. It counts as functional.
Assay [15] has as its system Staphylococcus epidermidis. Nature of the assay: Antibacterial activity against Staphylococcus epidermidis ATCC 12228 by plate dilution method. It counts as functional.
Assay [16] concerns Proteus vulgaris. Nature of the assay: Antibacterial activity against Proteus vulgaris ATCC 9920 by plate dilution method. It counts as functional.
A further assay concerns Enterococcus faecalis. The experiment in a line: Antibacterial activity against Enterococcus faecalis ATCC 29212 by plate dilution method. It counts as functional.
In assay [17] the test system is Aspergillus niger. The experiment in a line: Antifungal activity against Aspergillus niger MTCC 281 by plate dilution method relative to control. It counts as functional.
The test system of assay [18] is Staphylococcus aureus. Nature of the assay: microbe, parasite or virus in culture. This is another data set of the same source.
Assay [19] has as its system Bacillus subtilis. Nature of the assay: microbe, parasite or virus in culture.
Assay [20] can be described thus: Inhibition of Bacillus subtilis DNA gyrase.
Assay [21] is described as follows: Antioxidant activity assessed as DPPH radical scavenging activity. It counts as functional. In general terms: DPPH is a stable violet radical that fades when it is reduced.
Assay [22] relates to Pseudomonas aeruginosa. The experiment in a line: Antibacterial activity against Pseudomonas aeruginosa by agar dilution method. It counts as functional.
For assay [23], the system named is Bacillus subtilis. Nature of the assay: Potency index, ratio of ampicillin MIC to compound MIC for Bacillus subtilis by agar dilution method. It counts as functional.
Assay [24] concerns Bacillus subtilis. The experiment in a line: Antibacterial activity against Bacillus subtilis by agar dilution method. It counts as functional.
The subject of assay [25] is Escherichia coli. Nature of the assay: Potency index, ratio of ampicillin MIC to compound MIC for Escherichia coli by agar dilution method. It counts as functional.
Assay [26] relates to Staphylococcus aureus. Nature of the assay: Antibacterial activity against Staphylococcus aureus by agar dilution method. It counts as functional.
Assay [27] relates to Aspergillus niger. The experiment in a line: Antifungal activity against Aspergillus niger by agar dilution method. It counts as functional.
For assay [28], the system named is Candida albicans. Nature of the assay: Antifungal activity against Candida albicans by agar dilution method. It counts as functional.
Assay [29] deals with Escherichia coli. The experiment in a line: Antibacterial activity against Escherichia coli by agar dilution method. It counts as functional.
For assay [30], the system named is Staphylococcus aureus. The experiment in a line: Potency index, ratio of ampicillin MIC to compound MIC for Staphylococcus aureus by agar dilution method. It counts as functional.
In assay [31] the test system is Aspergillus fumigatus. The experiment in a line: Antifungal activity against Aspergillus fumigatus. It counts as functional.
In assay [32] the test system is Candida albicans. Nature of the assay: Antifungal activity against Candida albicans assessed as fungal growth inhibition. It counts as functional.
Assay [33] deals with Escherichia coli. Nature of the assay: Antimicrobial activity against Escherichia coli assessed as inhibition of bacterial growth. It counts as functional.
The subject of assay [34] is Bacillus subtilis. Nature of the assay: Antimicrobial activity against Bacillus subtilis. It counts as functional.
The subject of assay [35] is Staphylococcus aureus. The experiment in a line: Antimicrobial activity against Staphylococcus aureus assessed as inhibition of bacterial growth. It counts as functional.
Assay [36] relates to Proteus vulgaris. The experiment in a line: Antimicrobial activity against Proteus vulgaris assessed as inhibition of bacterial growth. It counts as functional.
The test system of assay [37] is Candida albicans. The experiment in a line: Antifungal activity against Candida albicans assessed as zone of inhibition. It counts as functional.
The subject of assay [38] is Aspergillus fumigatus. Nature of the assay: Antifungal activity against Aspergillus fumigatus assessed as zone of inhibition. It counts as functional.
A further assay relates to AGS. Nature of the assay: Anticancer activity against human AGS cells by MTS assay. It counts as functional, cell-based.
In a further assay the test system is ECa-109 cell line. The experiment in a line: Anticancer activity against human Eca-109 cells by MTS assay. It counts as functional, cell-based.
A short description of assay [39]: Anticancer activity against human HCC446 cells by MTS assay. It counts as functional, cell-based.
Assay [40] relates to Pseudomonas aeruginosa. Nature of the assay: microbe, parasite or virus in culture. To be noted: 24 h.
The test system of assay [41] is Escherichia coli. The experiment in a line: Antibacterial activity against Escherichia coli incubated for 24 hrs by disc diffusion method. It counts as functional.
Assay [42] concerns Aspergillus fumigatus. The experiment in a line: Antifungal activity against Aspergillus fumigatus incubated for 24 hrs by disc diffusion method. It counts as functional.
In assay [43] the test system is Candida albicans. The experiment in a line: microbe, parasite or virus in culture. To be noted: 24 h.
Assay [44] has as its system Aspergillus niger. The experiment in a line: Antifungal activity against Aspergillus niger incubated for 24 hrs by disc diffusion method. It counts as functional.
Assay [45] has as its system Staphylococcus aureus. Nature of the assay: microbe, parasite or virus in culture. To be noted: 24 h.
Assay [46] has as its system Mycobacterium tuberculosis. It counts as functional. To be noted: time 5 day.
Assay [47] has as its system Mycobacterium tuberculosis. It counts as functional. As to conditions: time 5 day. This is another data set of the same source.
The test system of assay [48] is Bacillus subtilis. The experiment in a line: microbe, parasite or virus in culture. To be noted: 24 h.
In assay [49] the test system is Aspergillus flavus. The experiment in a line: Antifungal activity against Aspergillus flavus incubated for 24 hrs by disc diffusion method. It counts as functional.
Assay [50] concerns Mycobacterium tuberculosis. Nature of the assay: microbe, parasite or virus in culture. As to conditions: 120 h.
Assay [51] has as its system Mycobacterium tuberculosis. It counts as functional. As to conditions: time 5 day. The source holds these as a separate data set.

Usually IC50 stands for the concentration that gives 50% inhibition. For `Cc1ccc(-c2nnc(SCC(=O)N3N=C(c4cccs4)CC3c3ccc(Cl)cc3)o2)cc1` (stereo not drawn), the IC50 stood at 16.8 µM in the assay on ASPC1, 1000 µM in assay [1] and 90 µM in the assay on Jurkat.

What is called GI50 is the concentration giving 50% growth inhibition. Read a low GI50 as greater sensitivity of the cells. For the compound `COc1ccc(C2CC(c3cc(OC)c(OC)c(OC)c3)=NN2C(C)=O)cc1OCc1cn(Cc2ccc(F)c(Cl)c2)nn1` (stereo not drawn), the GI50 in the assay with DU-145, in the assay on A549, with HepG2 and with HeLa was 7 µM throughout.

`CC(=O)Oc1ccc2c(c1)CC[C@@H]1[C@@H]2CC[C@]2(C)C3=NN(c4ccccc4)C(c4cccs4)C3C[C@@H]12` (stereo partly drawn): the Activity with MCF7 [2] was 87%. Further, the IC50 with MCF7 [3] came to 0.043 µM.

For the compound `CCOC(=O)C1N=NN(CC(=O)N2N=C(c3ccccc3)CC2c2cccs2)C1C(=O)OCC` (stereo not drawn), the MIC was determined as 3.9 µg/mL (≈ 8.07 µM) with Escherichia coli [4], 15 µg/mL (≈ 31 µM) with Klebsiella pneumoniae [5] and 3.9 µg/mL (≈ 8.07 µM) in the assay with Staphylococcus aureus [6].

On to `O=c1oc2ccc(F)cc2cc1-c1csc(N2N=C(c3ccc(F)cc3)CC2c2cc3ccccc3nc2Cl)n1` (stereo not drawn), for which the Activity in the assay with Penicillium citrinum came to 91.42%; in the assay on Candida albicans [7], 98.95%; in the assay with Aspergillus flavus [9] it was 98%; in the assay on Monascus purpureus it was 79.72%; in the assay on Aspergillus niger [17], 83.59%. Moreover, the MIC (in the assay with Klebsiella pneumoniae [8]; with Pseudomonas aeruginosa [10]; in assay [11]; against Staphylococcus aureus [12]; against Escherichia coli [13]; against Bacillus subtilis [14]) was 50 µg/mL (≈ 87.6 µM) in each case. For the same compound, the MIC (against Bacillus cereus; in assay [15]; against Proteus vulgaris [16]; against Enterococcus faecalis) was 50 µg/mL (≈ 87.6 µM) throughout.

For `CC(=O)N1N=C(c2ccc(C)cc2)CC1c1cc(Cl)ccc1Oc1c([N+](=O)[O-])cc(C(F)(F)F)cc1[N+](=O)[O-]` (stereo not drawn), the MIC against Staphylococcus aureus [18] and with Bacillus subtilis [19] was 0.39 µg/mL (≈ 0.693 µM) throughout. The same compound displayed an IC50 in assay [20] of 0.125 µg/mL (≈ 0.222 µM).

In the case of `COc1cccc2cc(/C=C/C(=O)c3cc(Br)ccc3O)c3nnnn3c12`, the IC50 in assay [21] is 22.4 µg/mL (≈ 52.7 µM). Also, the MIC turned out to be 25 µg/mL (≈ 58.8 µM) against Pseudomonas aeruginosa [22]; 50 µg/mL (≈ 118 µM) against Bacillus subtilis [24]; 50 µg/mL (≈ 118 µM) against Staphylococcus aureus [26]; 25 µg/mL (≈ 58.8 µM) against Aspergillus niger [27]; 25 µg/mL (≈ 58.8 µM) against Candida albicans [28]; 50 µg/mL (≈ 118 µM) with Escherichia coli [29]. The Ratio was 5 in the assay with Bacillus subtilis [23], 2 with Escherichia coli [25] and 5 in the assay on Staphylococcus aureus [30].

Regarding `Clc1ccc(C2CC(c3cccs3)=NN2c2nc(-c3ccccc3)cs2)c(Cl)c1` (stereo not drawn), the MIC against Aspergillus fumigatus [31] was 312 µg/mL (≈ 685 µM); with Candida albicans [32] it was 62.5 µg/mL (≈ 137 µM); with Escherichia coli [33] it was 9.77 µg/mL (≈ 21.4 µM); with Bacillus subtilis [34] it was 9.77 µg/mL (≈ 21.4 µM); in the assay with Staphylococcus aureus [35] it was 9.77 µg/mL (≈ 21.4 µM); in the assay on Proteus vulgaris [36] it was 9.77 µg/mL (≈ 21.4 µM). In addition, the “inhibition zone (IZ)” value with Candida albicans [37] stood at 23 mm; with Aspergillus fumigatus [38] it was 28 mm.

For the compound `C[C@]12CCC3(CC1=CCC1C2CC[C@]2(C)C4=NN[C@H](c5ccccc5)[C@H]4CC12)OCCO3` (stereo partly drawn), the IC50 in the assay on AGS stood at 27.4 µM; in the assay on ECa-109 cell line, 17.5 µM; in assay [39] it was 25.3 µM.

Take `O=C(NNS(=O)(=O)c1ccccc1)N1N=C(c2ccccc2)CC1c1ccccc1` (stereo not drawn): the MIC against Pseudomonas aeruginosa [40], with Escherichia coli [41], in the assay with Aspergillus fumigatus [42], against Candida albicans [43], in the assay on Aspergillus niger [44] and in the assay with Staphylococcus aureus [45] was 25 µg/mL (≈ 59.5 µM) in each case. In addition, the MIC is 25 µg/mL (≈ 59.5 µM) in the assay on Bacillus subtilis [48], 25 µg/mL (≈ 59.5 µM) against Aspergillus flavus [49] and 0.8 µg/mL (≈ 1.9 µM) in assay [50]. Further, the Ratio in assay [46] is 7.81; in [47], 3.9; in assay [51] it was 3.9.
